“Also recorded” adds a separate entry of the source. Ends that are not written are not given here. Peptide text beside a SMILES is read from it.

A short description of series [1]: Plasma peptide concentrations 4 h after last dosing in DIO mice. The class given is in vivo, male C57BL/6 J mice. Particulars: treatment day 6, 1,250 nmol/kg SC BID. As for the experimental part:
(a) Body weight. (b) 24 h food intake. (c) total food intake during treatment phase. (d) total food intake during wash-out phase. (e) Plasma peptide concentrations as measured 4 h after last dosing (treatment day 6). Peptides were administered (SC, BID) at a dose of 1250 nmol/kg (n = 7–8 per group). **p < 0.01, ***p < 0.001 compared to vehicle.
Figure 4 Lipidated metabolites of GUB03385 robustly reduce body weight and food intake in DIO mice. Effect of subchronic treatment (days 0–6) with GUB08248, GUB08251, GUB10194 and GUB10195 followed by 7-day wash-out period (days 7–13, marked in grey). In vivo efficacy was compared to semaglutide (10 nmol/kg, SC, QD, n = 8). (a) Body weight. (b) 24 h food intake. (c) Total food intake during treatment phase. (d) Total food intake during wash-out phase. (e) Plasma peptide concentrations as measured 4 h after last dosing (treatment day 6).
Compounds were freshly prepared in vehicle (PBS with 0.1% BSA, pH 4) just prior to dosing. Semaglutide was purchased from Hoersholm Pharmacy (Hoersholm, Denmark). All animals were single housed two weeks prior to treatment and throughout the remaining of the study period. […] Body weight and food intake (24 h) were measured daily during the treatment period and one week after treatment. […]

The target of series [2] is T1, human prolactin releasing peptide receptor (GPR10) (Homo sapiens, UniProt P49683).
T1 sequence (P49683 1-370): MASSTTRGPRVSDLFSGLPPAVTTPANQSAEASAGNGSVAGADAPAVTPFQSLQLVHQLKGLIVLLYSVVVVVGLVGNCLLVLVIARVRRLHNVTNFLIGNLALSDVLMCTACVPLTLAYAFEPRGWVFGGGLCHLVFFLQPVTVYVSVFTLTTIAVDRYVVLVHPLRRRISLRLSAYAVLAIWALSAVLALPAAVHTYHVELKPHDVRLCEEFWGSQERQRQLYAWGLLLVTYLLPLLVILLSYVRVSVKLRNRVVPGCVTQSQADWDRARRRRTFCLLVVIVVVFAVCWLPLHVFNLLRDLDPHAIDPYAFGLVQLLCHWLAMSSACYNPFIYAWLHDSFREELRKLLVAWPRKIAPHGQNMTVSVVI
Briefly: GPR10 functional activity assay (IP1, HTRF). It is filed as cell-based. Particulars: Chem-1 cells stably expressing human GPR10, 10.000 cells/well; HTRF IP1 (CisBio); 30 min at 37 °C; IP1 stimulation buffer with 0.05% casein; 11 concentrations.

Series [3] concerns DIO mice. The series is described as follows: In vivo efficacy of lipidated PrRP31 analogues in DIO mice (body weight, food intake). Also on record: species or system male C57BL/6 J mice. As for the experimental part:
For all in vivo studies, male C57BL/6 J mice (5 weeks old, n = 7–8) were purchased from Janvier Labs (Le Genest Saint Isle, France). Individual animals were identified by implantable subcutaneous microchips (PetID Microchip, E-vet, Haderslev, Denmark). Mice were housed in a controlled environment (12 h light/dark cycle, lights on at 3 AM, 21 ± 2 °C, humidity 50 ± 10%) and had ad libitum access to tap water and regular chow (Altromin 1324, Brogaarden, Hørsholm, Denmark) or high-fat diet (60% fat, D12492 Research diet) for up to 47 weeks prior to the initiation of the study. All animal experiments were conducted in accordance to internationally accepted principles for the care and use of laboratory animals. All experiments were approved by The Animal Experimentation Council, Danish Veterinary and Food Administration (license #2013-15-2934-00784) and the Gubra ethics committee. All experiments complied with the ARRIVE guidelines.
Compounds were freshly prepared in vehicle (PBS with 0.1% BSA, pH 4) just prior to dosing. Semaglutide was purchased from Hoersholm Pharmacy (Hoersholm, Denmark). All animals were single housed two weeks prior to treatment and throughout the remaining of the study period. Mice were randomized to treatment according to body weight (n = 7–8 per group) and dosed subcutaneously (SC, 5 ml/kg) for a total of 7 days with vehicle (BID), semaglutide (10 nmol/kg, QD) or peptide analogues (1,250 nmol/kg, BID). All compounds were administered during the light phase. Body weight and food intake (24 h) were measured daily during the treatment period and one week after treatment. In vivo data were subjected to relevant statistical analyses using GraphPad v9.1 software (GraphPad, La Jolla, CA). Statistical evaluation was carried out using Dunnett’s test one-factor linear model (endpoint body weight, food intake, cumulative food intake). A p-value less than 0.05 was considered statistically significant.

The target of series [4] is human NPFF2R (Homo sapiens, UniProt Q9Y5X5). The series is described as follows: NPFF2R functional activity assay (cAMP, HTRF). It is filed as cell-based. Particulars: CHO-K1 cells stably expressing human NPFF2R, 1500 cells/well; HTRF cAMP (CisBio); 3 µM forskolin (~90% activity level); 30 min; DPBS, 0.5 mM IBMX, 0.05% casein; 11 concentrations. As for the experimental part:
Figure 3 GPR10 and NPFF2R profiling of in vivo metabolites of GUB03385. […] (b) cAMP measurements in human NPFF2R CHO-K cells (HTRF technology, CisBio) at a fixed concentration of 3 µM forskolin after 30 min. incubation at room temperature with metabolites and the native peptide NPSF. Representative curves of three determinations.
The Homogenous Time Resolved Fluorescence (HTRF) technology optimized for Gq coupled receptors has thoroughly been described in the CisBio IP1 kit manual (#62IPAPEC) and in the cAMP assay kit manual for Gi coupled receptors (#62AM9PEC). Briefly, this technic is based on a competitive immunoassay using cryptate-labelled anti-cAMP or anti-IP1 antibodies and d2-labeled cAMP or IP1. In the absence of cellular cAMP or IP1, the anti-cryptate conjugate may get into proximity to the d2 conjugate and energy (FRET) can be transferred from cryptate to d2. Chem-1 cells stably expressing the human prolactin releasing peptide receptor (GPR10, Eurofins, # HTS057C) and irradiated CHO-K1 cells stably expressing the human NPFF2R (PerkinElmer, #ES-490-CF) were applied as cells in suspension, brought to life from frozen cell stocks immediately before assay performance. 384-Well (Corning, #4513) assay formats with a total assay volume of 20 µl were applied. GPR10 cells (10.000 cells/well) were incubated with agonist peptides and the NPFF2R cells (1500 cells/well) were incubated with agonist peptides and forskolin (~ 90% activity level) for 30 min at 37 °C using IP1 kit stimulation buffer and DPBS (Sigma, #D8537) containing 0.5 mM IBMX (Sigma, # I5879), receptively. Both stimulation buffers were supplemented with 0.05% casein (Sigma, # C4765-10 ml). After addition of HTRF® detection reagents and incubation with shaking (2400 rpm) for one hour at room temperature signals at 620 and 665 nm (raw counts: ratio of 665/620) were detected at a ClarioStar plate reader (BMG Labtech, Ortenberg, Germany). Concentration–response evaluation of compounds was performed with 11 concentrations of agonist peptides (covering 3 decades) and EC50 values were calculated by nonlinear regression using sigmoid concentration–response with variable slope. Data were analysed using GraphPad v9.1 software (GraphPad, La Jolla, CA).

The nature of series [5]: plasma of DIO mice 4 h after last dosing on treatment day 6 (SC, BID). Particulars: DIO mice (male C57BL/6 J), up to 4 h after last dosing on treatment day 6.
Series [6] can be described thus: plasma from cardiac blood samples of DIO mice dosed with GUB03385 (SC). Particulars: DIO mice (male C57BL/6 J), up to 120 min.

Sequence of human NPFF2R (Q9Y5X5 whole entry): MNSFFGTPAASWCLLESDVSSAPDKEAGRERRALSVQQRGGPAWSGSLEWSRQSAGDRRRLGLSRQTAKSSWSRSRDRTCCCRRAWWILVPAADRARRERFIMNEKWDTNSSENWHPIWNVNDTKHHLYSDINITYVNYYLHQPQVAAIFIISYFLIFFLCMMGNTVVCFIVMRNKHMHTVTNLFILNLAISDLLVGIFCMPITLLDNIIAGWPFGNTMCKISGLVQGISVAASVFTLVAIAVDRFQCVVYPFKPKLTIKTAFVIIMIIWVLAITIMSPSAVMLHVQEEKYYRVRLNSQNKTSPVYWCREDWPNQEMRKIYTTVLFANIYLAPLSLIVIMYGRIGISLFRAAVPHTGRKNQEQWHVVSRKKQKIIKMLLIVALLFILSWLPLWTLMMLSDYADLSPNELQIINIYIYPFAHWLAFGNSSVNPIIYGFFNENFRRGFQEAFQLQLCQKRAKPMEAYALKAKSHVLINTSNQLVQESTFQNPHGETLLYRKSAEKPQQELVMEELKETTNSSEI

Turning to `CCCCCCCCCCCCCCCC(=O)N[C@@H](CCC(=O)NCCCC[C@H](NC(=O)[C@@H](NC(=O)[C@H](CCC(=O)O)NC(=O)[C@H](CCSC)NC(=O)[C@H](CO)NC(=O)[C@H](Cc1c[nH]cn1)NC(=O)[C@H](CCCNC(=N)N)NC(=O)[C@H](Cc1c[nH]cn1)NC(=O)[C@@H](NC(=O)[C@H](CCCNC(=N)N)NC(=O)[C@@H](N)CO)[C@@H](C)O)[C@@H](C)CC)C(=O)N[C@H](C(=O)N1CCC[C@H]1C(=O)N[C@@H](CC(=O)O)C(=O)N[C@H](C(=O)N[C@@H](CC(N)=O)C(=O)N1CCC[C@H]1C(=O)N[C@@H](C)C(=O)N[C@@H](Cc1c[nH]c2ccccc12)C(=O)N[C@@H](Cc1ccc(O)cc1)C(=O)N[C@@H](C)C(=O)N[C@@H](CO)C(=O)N[C@@H](CCCNC(=N)N)C(=O)NCC(=O)N[C@H](C(=O)N[C@@H](CCCNC(=N)N)C(=O)N1CCC[C@H]1C(=O)N[C@H](C(=O)NCC(=O)N[C@@H](CCCNC(=N)N)C(=O)N[C@@H](Cc1ccccc1)C(N)=O)C(C)C)[C@@H](C)CC)[C@@H](C)CC)[C@@H](C)O)C(=O)O` [GUB02647] (HELM PEPTIDE1{S.R.T.H.R.H.S.M.E.I.K.T.P.D.I.N.P.A.W.Y.A.S.R.G.I.R.P.V.G.R.F.[am]}|PEPTIDE2{[CCCCCCCCCCCCCCCC(=O)[*:2]].[gGlu]}$PEPTIDE1,PEPTIDE2,11:R3-2:R2$$$V2.0), the “plasma exposure 4 h after last dosing” value in series [1] is “not detected in plasma; also recorded: undetectable in plasma”. The EC50 amounted to 0.3 nM in series [2] and 147 nM in series [4]. Also, the “effect on food intake” value in series [3] (1,250 nmol/kg SC BID days 0-6, wash-out days 7-13, 24 h food intake measured daily) is “significantly suppressed food intake during the treatment period, but not in the wash-out phase”. Besides, the “body weight loss, day 7” value in series [3] (1,250 nmol/kg SC BID for 7 days (days 0-6), after last dosing, n = 7-8 per group) turned out to be 11.8 ± 1.0%. Besides, in series [3] (1,250 nmol/kg SC BID for 7 days, then 7-day wash-out, n = 7-8 per group), the “body weight loss, day 13” value came to 8.1 ± 1.0%. For the same molecule, the “weight loss (as summarised in discussion)” value in series [3] (subchronic SC treatment with 1,250 nmol/kg BID, time point not stated) amounted to 8%.

As to `CC(C)C[C@H](NC(=O)[C@H](Cc1ccccc1)NC(=O)[C@H](C)NC(=O)[C@H](CCC(N)=O)NC(=O)[C@@H](N)CO)C(=O)N[C@@H](Cc1ccccc1)C(=O)N[C@@H](CCC(N)=O)C(=O)N1CCC[C@H]1C(=O)N[C@@H](CCC(N)=O)C(=O)N[C@@H](CCCNC(=N)N)C(=O)N[C@@H](Cc1ccccc1)C(N)=O` [NPSF, neuropeptide SF], the EC50 in series [2] is greater than 5000 nM; in series [4] it was 5.6 nM.

Consider “SRGK*RPVGRF (K* lipid chain: C18 γE OEG OEG)”, for which the fragment found entry in series [5] was “GUB08251”.

As for “SRGK*RPVGRF (K* lipid chain: C18DA γE OEG OEG)”, in series [5], the fragment found result is listed as “GUB10195”.

On to “SRTHRHSMEIRTPDINPAWYASRGK*RPVGRF (K* lipid chain: C18 γE OEG OEG; C-terminally amidated)”, for which the fragment found entry in series [6] is “GUB08247: ASRGK*RPVG (C18 γE OEG OEG), major, 30 min; also recorded: GUB08248: SRGK*RPVGRF (C18 γE OEG OEG), major, 30 min; also recorded: GUB08249: SRGK*RPVG (C18 γE OEG OEG), major, 30 min; also recorded: GUB08250: SRGK*RPV (C18 γE OEG OEG), major, 30 min; also recorded: GUB08251: GK*RPVGRF (C18 γE OEG OEG), major, 60 min; also recorded: GUB08252: K*RPVGR (C18 γE OEG OEG), major, 60 min; also recorded: GUB08253: K*RPVG (C18 γE OEG OEG), major, 60 min; also recorded: GUB08254: K*RPV (C18 γE OEG OEG), major, 60 min”.

As for TPDINPAWYASRGIRPVGRF-NH2 [PrRP20], the EC50 is 0.2 nM in series [2] and greater than 5000 nM in series [4].

The values above are taken from paper PMC8807614 (Scientific Reports, 2022).
